ChEMBL document CHEMBL1201862, “PubChem BioAssay data set” (2004)
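These data come from cells grown in 96-well plates and exposed to compound for 48 hours at five concentrations. Abbreviation: GI50, concentration required for 50% inhibition of growth.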 Active and inactive are the calls of the source. No stated cut-off is given here; in the data, active = GI50 up to about 1.1 µM and inactive = higher.

Tests used:
Assay in all cases: DTP human tumour cell line panel, 48 h
[1] = test system: OVCAR-4
[2] = test system: MOLT-4
[3] = test system: TK-10
[4] = test system: DU-145
[5] = test system: CCRF-CEM
[6] = test system: SNB-75
[7] = test system: MDA-N
[8] = test system: COLO 205
[9] = test system: SK-MEL-5
[10] = test system: KM12
[11] = test system: NCI-H522
[12] = test system: EKVX
[13] = test system: UO-31
[14] = test system: 786-0
[15] = test system: A549
[16] = test system: SF-268
[17] = test system: OVCAR-5
[18] = test system: IGROV-1
[19] = test system: HCC 2998
[20] = test system: UACC-62

Measured: GI50

Oc1c2c(nc3cc4c(cc13)OCO4)-c1ccccc1CCC2
inactive: [1] 30.2 µM | [2] > 50 µM | [3] > 50 µM | [4] > 50 µM | [5] > 50 µM | [6] > 50 µM | [7] 18.9 µM | [8] > 50 µM | [9] 45.6 µM | [10] > 50 µM | [11] > 50 µM | [12] > 50 µM | [13] > 50 µM | [14] > 50 µM | [15] > 50 µM | [16] > 50 µM | [17] > 50 µM | [18] 30.2 µM | [19] > 50 µM | [20] > 50 µM

C/C(=C\CNc1ncnc2c1ncn2CCC#N)CO
inactive: [1] > 100 µM | [2] > 100 µM | [3] > 100 µM | [4] > 100 µM | [5] > 100 µM | [6] > 100 µM | [7] > 100 µM | [8] > 100 µM | [9] > 100 µM | [10] > 100 µM | [11] > 100 µM | [12] > 100 µM | [13] > 100 µM | [14] > 100 µM | [15] > 100 µM | [16] > 100 µM | [17] > 100 µM | [18] > 100 µM | [19] > 100 µM | [20] > 100 µM

O=[N+]([O-])c1c2nc3n(c2cc2c1nc1n2CCC1)CCC3
inactive: [1] > 100 µM | [2] > 100 µM | [3] > 100 µM | [4] > 100 µM | [5] > 100 µM | [6] > 100 µM | [7] > 100 µM | [8] > 100 µM | [9] > 100 µM | [10] > 100 µM | [11] > 100 µM | [12] > 100 µM | [13] > 100 µM | [14] > 100 µM | [15] > 100 µM | [16] > 100 µM | [17] > 100 µM | [18] > 100 µM | [19] > 100 µM | [20] > 100 µM

CCOC(=O)C1=NN(c2ccccc2)C(=O)/C1=C\NC(=S)C(N)=S
inactive: [1] 40.9 µM | [2] 26.4 µM | [3] 36.2 µM | [4] 50.9 µM | [5] 34.1 µM | [6] 47.3 µM | [7] 32.8 µM | [8] 28.1 µM | [9] 19.6 µM | [10] 70.6 µM | [11] 16.6 µM | [12] 27.2 µM | [13] 19.2 µM | [14] 20.7 µM | [15] 66.1 µM | [16] 38.5 µM | [17] 38.6 µM | [18] 42.6 µM | [19] 43.4 µM | [20] 29.3 µM

COc1ccc(/C(Cl)=C(\C=O)c2ccc(OC)c(OC)c2)cc1OC
inactive: [1] 63.8 µM | [2] > 100 µM | [3] > 100 µM | [4] > 100 µM | [5] > 83.9 µM | [6] 22.9 µM | [7] > 100 µM | [8] > 100 µM | [9] > 81.7 µM | [10] 32.5 µM | [11] 43.5 µM | [12] > 100 µM | [13] > 100 µM | [14] > 100 µM | [15] > 100 µM | [16] 37.2 µM | [17] > 45.6 µM | [18] 95.3 µM | [19] > 97.1 µM | [20] > 100 µM

Nn1c(SCC(=O)NCc2ccccc2)nc2ccccc2c1=O
inactive: [1] 54.2 µM | [2] 19.1 µM | [3] 41.5 µM | [4] 65 µM | [5] 13.7 µM | [6] > 100 µM | [7] 38.9 µM | [8] 48.5 µM | [9] 41 µM | [10] > 100 µM | [11] 41.7 µM | [12] 64.3 µM | [13] 43.9 µM | [14] 55.6 µM | [15] 31.3 µM | [16] 38.2 µM | [17] > 100 µM | [18] 53.3 µM | [19] 44.8 µM | [20] 41.6 µM

Nc1ncnc2c1ncn2C1OC(CO)=CC1O (centres undefined)
inactive: [1] > 37.5 µM | [2] > 37.5 µM | [3] > 37.5 µM | [4] > 37.5 µM | [5] > 37.5 µM | [6] > 37.5 µM | [7] > 37.5 µM | [8] > 37.5 µM | [9] > 37.5 µM | [10] > 37.5 µM | [11] > 37.5 µM | [12] > 37.5 µM | [13] > 37.5 µM | [14] > 37.5 µM | [15] > 37.5 µM | [16] > 37.5 µM | [17] > 37.5 µM | [18] > 37.5 µM | [19] > 37.5 µM | [20] > 37.5 µM

Cc1cc(C[C@H]2O[C@@H]3OC(C)(C)O[C@@H]3[C@H]3OC(C)(C)O[C@H]32)c2ccccc2n1
inactive: [1] > 100 µM | [2] 31.8 µM | [3] > 100 µM | [4] > 100 µM | [5] 42.1 µM | [6] > 100 µM | [7] 41.3 µM | [8] > 100 µM | [9] 55.6 µM | [10] 54.8 µM | [11] 16 µM | [12] 79.6 µM | [13] 33.3 µM | [14] > 100 µM | [15] 63.4 µM | [16] > 100 µM | [17] > 100 µM | [18] 49.8 µM | [19] > 100 µM | [20] > 100 µM

COc1ccc(C2CC(=O)CC(c3ccc(OC)cc3)C23C(=O)NC(=O)NC3=O)cc1 (centres undefined)
inactive: [1] 67 µM | [2] 19 µM | [3] 89.5 µM | [4] 48 µM | [5] 32.7 µM | [6] 25.8 µM | [7] 31.8 µM | [8] 32.1 µM | [9] 25 µM | [10] 25.6 µM | [11] 23.3 µM | [12] 32.9 µM | [13] 31.6 µM | [14] 30.5 µM | [16] 44.1 µM | [17] 56.4 µM | [18] 26.2 µM | [19] 20.3 µM | [20] 64.1 µM

CN(NC(=O)c1ccco1)C1=NCCCCN1
inactive: [1] > 100 µM | [2] > 100 µM | [3] > 100 µM | [4] > 100 µM | [5] > 100 µM | [6] > 100 µM | [7] > 100 µM | [8] > 100 µM | [9] > 100 µM | [10] > 100 µM | [11] > 100 µM | [12] > 100 µM | [13] > 100 µM | [14] > 100 µM | [15] > 100 µM | [16] > 100 µM | [17] > 100 µM | [18] > 100 µM | [19] > 100 µM | [20] > 100 µM
